In US20150073038A1 (Marina Biotech, Inc., priority 2009, published 2015):

Legend:
[1] = DSC measurement of 2nd melting behavior; assay type: physicochemical; settings: heat/cool/heat cycle
Experimental: The 2nd melting behavior of activity-generating delivery molecules was assessed on a TA Instruments Q200 Differential Scanning calorimeter in a heat/cool/heat cycle by weighing 0.5 to 1.5 mg of the powder into an aluminum pan and heating to 175° C. at 20° C./min., cooling to −50° C. at 10° C./min., and heating to 200° C. at 20° C./min.
Without intending to be bound by any particular theory, the melting behavior of an activity-generating delivery molecule may relate to its ability to form lamellar, bilayer, or other ordered structures which can be useful for carrying an active agent to interact with, and enter a cellular compartment to generate pharmacological or biological activity. […] A substance having less ordered structures may provide greater membrane fusion ability which can be needed for delivery of the active agent to a cell. Thus, differential scanning calorimetry can be used to distinguish the properties of compounds with certain significant thermotropic phases or transitions from compounds with different properties and less significant thermotropic phases or transitions.

TNS dye assay for pKa = assay type: physicochemical; settings: pH 3.0 to 11.0, 30 min at 37° C.; for pKa: liposomes of the lipid with TNS dye in universal buffer, pH 3, liposome test sample, read-out: pKa as measured by TNS dye assay; for pKa as measured by TNS dye assay: liposome test sample
Experimental: To measure pH responsive fluorescence, a TNS/Liposome reaction mixture was prepared as follows: 16 μL of TNS at 1 mg/mL (dissolved in 20% DMF), 160 μL of liposome test sample at 1 mM and 3824 μL of H20. Briefly, in a Costar 96 well plate; 100 μL/well of 2× universal buffer was added (50 mM Citrate; 40 mM sodium phosphate; 40 mM ammonium acetate; 300 mM NaCl, the 2× buffer was titrated to different pHs, at 0.5 pH increments from pH 3.0 to pH 11.0 using NaOH or HCl). To each well containing the 100 of universal buffer, 100 μL of the TNS/Liposome reaction mixture is then added to achieve a final volume of 200 μL, a TNS concentration of 5.92 μM and a final lipid concentration of 20 μM per well. After 30 min at 37° C. the fluorescence was read at an excitation wavelength of 322 nm and emission wavelength of 431 nm. The pKa was determined at the pH corresponding to the midpoint between the maximum and the minimum fluorescence intensity, utilizing sigmoidal fit software.
TNS dye (2,6-TNS (2-(p-toluidinyl)naphthalene-6-sulfonic acid, sodium salt; Invitrogen T53; MW 335.4).

ApoB in Hep3B cells = test: In vitro gene silencing activity, formulation with UsiRNA against ApoB in Hep3B cells, quantitative RT-PCR; assay type: cell-based; settings: UsiRNA DX10008, Hep3B, 24 h
Experimental: The methodology for determining the in vitro gene silencing activity of an activity-generating delivery molecule was as follows: Hep3B cells were transfected in triplicate, 96-well format with a formulation of the activity-generating delivery molecule and a UsiRNA against ApoB. After 24 h, cellular RNA was prepared and evaluated by quantitative RT-PCR for target ApoB and the normalizer 36B4 or GAPDH expression levels.
The in vitro activity was generated with a UsiRNA against ApoB in Hep3B cells.

Factor VII mRNA = test: In vivo gene knockdown in Balb/c mice, tail-vein injection of formulation with UsiRNA; set-up: species or system mouse; settings: DMPE-PEG2k 2 mole %, UsiRNA against Factor VII mRNA
Description: In vivo gene knockdown activity was generated in Balb/c mice administered by tail-vein injection with a formulation including the activity-generating delivery molecule and a UsiRNA against Factor VII mRNA.

Factor VII = test: In vivo gene-silencing dose-response, UsiRNA against Factor VII in formulation, tail-vein injection; set-up: species or system mouse; settings: normal Balb/c mice, single tail-vein IV injection, serum F-VII at 48 hr post dose; dose as active UsiRNA per kg; formulated with cholesterol, C18:2-DAB-C16, DSPE-PEG2k 51:31:17:1 mole %
Experimental: In FIG. 1 is shown a chart of the gene-silencing dose-response in vivo mouse for a UsiRNA against Factor VII administered by tail-vein injection in a formulation including the activity-generating delivery molecule C18:2-DAP(N,N-diMe)-C18:2. The calculated ED50 was 30 μg/kg. The x-axis of FIG. 1 refers to mgA/kg which is by pharmaceutical convention the mg of active UsiRNA per kg body weight. Here it refers to the fraction of UsiRNA that is duplexed, and encapsulated or carried by the activity-generating delivery molecules.
Animals were each administered a single tail-vein IV injection, and sacrificed at 48 hr post dose for analysis of serum F-VII.
The activity-generating molecule C18:2-DAP(N,N-diMe)-C18:2 was formulated with cholesterol, a second activity-generating molecule C18:2-DAB-C16, and DSPE-PEG2k at concentrations of 51:31:17:1 mole %, respectively.

[2] = delivery molecule 25.00 mole %, CHOL 75.00 mole %
[3] = delivery molecule 25.00 mole %, DOPE 75.00 mole %
[4] = delivery molecule 33.33 mole %, CHOL 66.66 mole %
[5] = delivery molecule 33.33 mole %, DOPE 66.66 mole %
[6] = delivery molecule 50.00 mole %, CHOL 50.00 mole %
[7] = delivery molecule 50.00 mole %, DOPE 50.00 mole %
[8] = delivery molecule 66.66 mole %, CHOL 33.33 mole %
[9] = delivery molecule 66.66 mole %, DOPE 33.33 mole %
[10] = delivery molecule 75.00 mole %, CHOL 25.00 mole %
[11] = delivery molecule 75.00 mole %, DOPE 25.00 mole %

Row | pKa (TNS dye assay for pKa) | pKa as measured by TNS dye assay (TNS dye assay for pKa) | SMILES | 2nd melting behavior, thermal transitions by differential scanning calorimetry [1] | In vitro Gene Knockdown % (ApoB in Hep3B cells; [2]) [%] | In vitro Gene Knockdown % (ApoB in Hep3B cells; [3]) [%] | In vitro Gene Knockdown % (ApoB in Hep3B cells; [4]) [%] | In vitro Gene Knockdown % (ApoB in Hep3B cells; [5]) [%] | In vitro Gene Knockdown % (ApoB in Hep3B cells; [6]) [%] | In vitro Gene Knockdown % (ApoB in Hep3B cells; [7]) [%] | In vitro Gene Knockdown % (ApoB in Hep3B cells; [8]) [%] | In vitro Gene Knockdown % (ApoB in Hep3B cells; [9]) [%] | In vitro Gene Knockdown % (ApoB in Hep3B cells; [10]) [%] | In vitro Gene Knockdown % (ApoB in Hep3B cells; [11]) [%] | In vivo Gene Knockdown % (Factor VII mRNA; delivery molecule 49 mole %, CHOL 49 mole %) [%] | In vivo Gene Knockdown % (Factor VII mRNA; delivery molecule 65.3 mole %, CHOL 32.7 mole %) [%] | calculated ED50, gene silencing in vivo (Factor VII) [mg/kg]
1 | 6 | – | CCCCCCCC/C=C\CCCCCCCCNC(=O)C(CN)NC(=O)CCCCCCC/C=C\CCCCCCCC (stereo not drawn) [C18:1-DAP(NH3 + Cl—)-C18:1, N-(3-amino-1-((Z)-octadec-9-en-1-ylamino)-1-oxopropan-2-yl)oleamide] | – | 83 | 81 | 80 | 83 | 73 | 82 | 76 | 72 | 79 | 77 | – | – | –
2 | – | 5.3 | CCCCCC=CCC=CCCCCCCCC(=O)NC(CN(C)C)C(=O)NCCCCCCCCC=CCCCCCCCC (stereo not drawn) [C18:2-DAP(Me,Me)-C18:1] | – | 90 | 86 | 91 | 87 | 88 | 84 | 91 | 85 | – | 84 | – | – | –
3 | 4.9 | – | CCCCC/C=C\C/C=C\CCCCCCCCNC(=O)C(N)NC(=O)CCCCCCC/C=C\C/C=C\CCCCC (stereo not drawn) [C18:2-DAA-C18:2, (9Z,12Z)—N-(1-amino-2-((9Z,12Z)-octadeca-9,12-dien-1-ylamino)-2-oxoethyl) octadeca-9,12-dienamide] | – | – | – | – | – | – | – | – | – | – | – | – | – | –
4 | 7.6 | – | CCCCC/C=C\C/C=C\CCCCCCCCNC(=O)C(CN)NC(=O)CCCCCCC/C=C\C/C=C\CCCCC (stereo not drawn) [C18:2-DAP-C18:2, (9Z,12Z)—N-(3-amino-1-((9Z,12Z)-octadeca-9,12-dien-1-ylamino)-1-oxopropan-2-yl)octadeca-9,12-dienamide] | – | – | – | – | – | – | – | – | – | – | – | – | – | –
5 | 5.8 | – | CCCCC/C=C\C/C=C\CCCCCCCCNC(=O)C(CN(C)C)NC(=O)CCCCCCC/C=C\C/C=C\CCCCC (stereo not drawn) | – | 6 | – | – | 86 | 19 | 87 | 19 | 81 | – | 18 | – | – | 0.03

Continued, compound first:

Row | SMILES | pKa (TNS dye assay for pKa) | pKa as measured by TNS dye assay (TNS dye assay for pKa) | 2nd melting behavior, thermal transitions by differential scanning calorimetry [1] | In vitro Gene Knockdown % (ApoB in Hep3B cells; [2]) [%] | In vitro Gene Knockdown % (ApoB in Hep3B cells; [3]) [%] | In vitro Gene Knockdown % (ApoB in Hep3B cells; [4]) [%] | In vitro Gene Knockdown % (ApoB in Hep3B cells; [5]) [%] | In vitro Gene Knockdown % (ApoB in Hep3B cells; [6]) [%] | In vitro Gene Knockdown % (ApoB in Hep3B cells; [7]) [%] | In vitro Gene Knockdown % (ApoB in Hep3B cells; [8]) [%] | In vitro Gene Knockdown % (ApoB in Hep3B cells; [9]) [%] | In vitro Gene Knockdown % (ApoB in Hep3B cells; [10]) [%] | In vitro Gene Knockdown % (ApoB in Hep3B cells; [11]) [%] | In vivo Gene Knockdown % (Factor VII mRNA; delivery molecule 49 mole %, CHOL 49 mole %) [%] | In vivo Gene Knockdown % (Factor VII mRNA; delivery molecule 65.3 mole %, CHOL 32.7 mole %) [%] | calculated ED50, gene silencing in vivo (Factor VII) [mg/kg]
6 | CCCCC/C=C\C/C=C\CCCCCCCCNC(=O)C(CCN)NC(=O)CCCCCCC/C=C\C/C=C\CCCCC (stereo not drawn) [C(18:2)oleoyl-DAB-C(18:2)alkenylamino, (9Z,12Z)—N-(4-amino-1-((9Z,12Z)-octadcca-9,12-dien-1-ylamino)-1-oxobutan-2-yl) octadeca-9,12-dienamide] | – | – | complete lack of thermal transition peaks | – | – | – | – | – | – | – | – | – | – | – | – | –
7 | CCCCC/C=C\C/C=C\CCCCCCCC(=O)NC(CN)C(=O)NCCCCCCCC/C=C\CCCCCCCC (stereo not drawn) [C18:2-Dap(NH3 + Cl—)-C18:1, (9Z,12Z)—N-(3-amino-1-((Z)-octadec-9-en-1-ylamino)-1-oxopropan-2-yl)octadeca-9,12-dienamide] | – | – | – | 64 | 85 | 62 | 83 | 56 | 83 | 61 | 69 | 52 | 48 | – | – | –
8 | CCCCC/C=C\C/C=C\CCCCCCCCNC(=O)C1CC(N(C)C)CN1C(=O)CCCCCCC/C=C\C/C=C\CCCCC (stereo not drawn) [C18:2-aminoPro(N—Me,N—Me)-C18:2] | – | 6.6 | – | 79 | 66 | 72 | 74 | 62 | 82 | 53 | 73 | 59 | 68 | 68 | 48 | –
9 | CCCCCCCCCCCCCCCCCCNC(=O)C(CCNC(=N)N)NC(=O)CCCCCCCCCCCCCCCCC (stereo not drawn) [CH3(CH2)16(CO)-norArg-NH(CH2)17CH3, reference compound] | – | – | presence of significant thermal or melting transitions | – | – | – | – | – | – | – | – | – | – | – | – | –
